# pIC50: −log10 of the molar value.
# Experiments:
# [1] = species: Homo sapiens; assay: Selectivity ratio, ratio of IC50 for human PDE4D3 to IC50 for human PDE4B1
# [2] = target: 3',5'-cyclic-AMP phosphodiesterase 4B (Homo sapiens, UniProt Q07343); assay: Inhibition of human PDE4B1 incubated for 10 mins using cAMP and [3H]cAMP substrates
# [3] = target: 3',5'-cyclic-AMP phosphodiesterase 4D (Homo sapiens, UniProt Q08499); assay: Inhibition of human PDE4D3 incubated for 10 mins using cAMP and [3H]cAMP substrates
# [4] = tested on: Mustela putorius furo; assay: Toxicity in ferret assessed as induction of emesis at 10 mg/kg, po measured 6 hrs post dose; assay type: organism-based; design: dose 10 mg/kg, route oral; conditions: in vivo
# [5] = tested on: Mustela putorius furo; assay: Toxicity in ferret assessed as induction of emesis at 1 mg/kg, po measured 6 hrs post dose; assay type: organism-based; design: dose 1 mg/kg, route oral; conditions: in vivo
# [6] = tested on: Mus musculus; assay: Inhibition of LPS-induced TNFalpha production in po dosed mouse; assay type: functional; conditions: read-out: ID50 (the source's name)
# [7] = tested on: Mustela putorius furo; assay: Inhibition of […] in ferret assessed as inhibition of LPS-induced change in number of neutrophils in lung lavage at 10 mg/kg, po; assay type: functional
# [8] = tested on: Mustela putorius furo; assay: Toxicity in ferret assessed as induction of emesis at 0.3 mg/kg, po measured 6 hrs post dose; assay type: organism-based; design: dose 0.3 mg/kg, route oral; conditions: in vivo
# [9] = target: T1, Cytochrome P450 1A2 (Homo sapiens, UniProt P05177); assay: Inhibition of CYP1A2; assay type: ADME
# T1 sequence (P05177 whole entry): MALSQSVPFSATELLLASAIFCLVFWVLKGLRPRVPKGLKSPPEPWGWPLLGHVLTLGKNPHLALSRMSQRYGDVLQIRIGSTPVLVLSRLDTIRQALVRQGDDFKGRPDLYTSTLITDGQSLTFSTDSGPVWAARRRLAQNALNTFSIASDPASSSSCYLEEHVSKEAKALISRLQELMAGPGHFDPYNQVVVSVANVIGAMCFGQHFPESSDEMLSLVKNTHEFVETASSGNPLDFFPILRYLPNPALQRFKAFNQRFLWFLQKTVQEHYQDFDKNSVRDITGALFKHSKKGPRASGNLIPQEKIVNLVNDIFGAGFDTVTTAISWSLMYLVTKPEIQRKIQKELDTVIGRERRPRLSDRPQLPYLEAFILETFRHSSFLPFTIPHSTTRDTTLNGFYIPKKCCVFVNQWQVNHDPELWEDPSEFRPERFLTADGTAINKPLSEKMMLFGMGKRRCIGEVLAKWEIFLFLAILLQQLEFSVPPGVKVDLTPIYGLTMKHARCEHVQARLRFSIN
# [10] = target: Cytochrome P450 3A4 (Homo sapiens, UniProt P08684); assay: Inhibition of CYP3A4; assay type: ADME
# [11] = tested on: Mustela putorius furo; assay: Inhibition of […] in ferret assessed as inhibition of LPS-induced change in number of neutrophils in lung lavage at 25 mg/kg, po; assay type: functional
# [12] = Oral bioavailability in mouse; assay type: ADME, organism-based; conditions: in vivo
# [13] = AUC (0 to infinity) in mouse at 2 mg/kg, po; assay type: ADME, organism-based; design: time infinity, dose 2 mg/kg, route oral; conditions: plasma
# [14] = Inhibition of PDE3
# [15] = Cmax in mouse at 2 mg/kg, po; assay type: ADME, organism-based; design: dose 2 mg/kg, route oral; conditions: in vivo
# [16] = Cmax in ferret at 2 mg/kg, po; assay type: ADME, organism-based, Mustela putorius furo; design: dose 2 mg/kg, route oral; conditions: in vivo
# [17] = tested on: Mustela putorius furo; assay: Toxicity in ferret assessed as induction of emesis at 200 mg/kg, po measured 6 hrs post dose; assay type: organism-based; design: dose 200 mg/kg, route oral; conditions: in vivo
# [18] = tested on: Mustela putorius furo; assay: Inhibition of […] in ferret assessed as inhibition of LPS-induced change in number of neutrophils in lung lavage at 12.5 mg/kg, po; assay type: functional
# [19] = tested on: Mustela putorius furo; assay: Toxicity in ferret assessed as induction of emesis at 100 mg/kg, po measured 6 hrs post dose; assay type: organism-based; design: dose 100 mg/kg, route oral; conditions: in vivo
# [20] = Inhibition of PDE6
# [21] = target: Cytochrome P450 2D6 (Homo sapiens, UniProt P10635); assay: Inhibition of CYP2D6; assay type: ADME
# [22] = AUC (0 to infinity) in ferret at 2 mg/kg, po; assay type: ADME, organism-based, Mustela putorius furo; design: time infinity, dose 2 mg/kg, route oral; conditions: plasma
# [23] = Inhibition of PDE1
# [24] = target: cGMP-specific 3',5'-cyclic phosphodiesterase (Homo sapiens, UniProt O76074); assay: Inhibition of PDE5
# [25] = target: Cytochrome P450 2C9 (Homo sapiens, UniProt P11712); assay: Inhibition of CYP2C9; assay type: ADME
# Sequence of Cytochrome P450 2C9 (P11712 whole entry): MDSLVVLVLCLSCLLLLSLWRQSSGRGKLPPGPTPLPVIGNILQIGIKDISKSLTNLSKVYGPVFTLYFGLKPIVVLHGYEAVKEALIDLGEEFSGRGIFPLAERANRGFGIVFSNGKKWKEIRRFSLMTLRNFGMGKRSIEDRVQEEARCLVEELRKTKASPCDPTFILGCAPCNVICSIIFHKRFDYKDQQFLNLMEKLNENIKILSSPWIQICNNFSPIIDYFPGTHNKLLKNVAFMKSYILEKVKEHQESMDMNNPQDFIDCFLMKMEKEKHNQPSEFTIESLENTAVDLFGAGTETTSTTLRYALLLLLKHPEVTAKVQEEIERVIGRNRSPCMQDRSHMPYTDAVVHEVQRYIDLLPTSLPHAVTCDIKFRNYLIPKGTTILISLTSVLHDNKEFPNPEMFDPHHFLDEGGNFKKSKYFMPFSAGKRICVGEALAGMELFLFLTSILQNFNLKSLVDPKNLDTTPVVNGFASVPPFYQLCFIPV
# Sequence of 3',5'-cyclic-AMP phosphodiesterase 4D (Q08499 whole entry): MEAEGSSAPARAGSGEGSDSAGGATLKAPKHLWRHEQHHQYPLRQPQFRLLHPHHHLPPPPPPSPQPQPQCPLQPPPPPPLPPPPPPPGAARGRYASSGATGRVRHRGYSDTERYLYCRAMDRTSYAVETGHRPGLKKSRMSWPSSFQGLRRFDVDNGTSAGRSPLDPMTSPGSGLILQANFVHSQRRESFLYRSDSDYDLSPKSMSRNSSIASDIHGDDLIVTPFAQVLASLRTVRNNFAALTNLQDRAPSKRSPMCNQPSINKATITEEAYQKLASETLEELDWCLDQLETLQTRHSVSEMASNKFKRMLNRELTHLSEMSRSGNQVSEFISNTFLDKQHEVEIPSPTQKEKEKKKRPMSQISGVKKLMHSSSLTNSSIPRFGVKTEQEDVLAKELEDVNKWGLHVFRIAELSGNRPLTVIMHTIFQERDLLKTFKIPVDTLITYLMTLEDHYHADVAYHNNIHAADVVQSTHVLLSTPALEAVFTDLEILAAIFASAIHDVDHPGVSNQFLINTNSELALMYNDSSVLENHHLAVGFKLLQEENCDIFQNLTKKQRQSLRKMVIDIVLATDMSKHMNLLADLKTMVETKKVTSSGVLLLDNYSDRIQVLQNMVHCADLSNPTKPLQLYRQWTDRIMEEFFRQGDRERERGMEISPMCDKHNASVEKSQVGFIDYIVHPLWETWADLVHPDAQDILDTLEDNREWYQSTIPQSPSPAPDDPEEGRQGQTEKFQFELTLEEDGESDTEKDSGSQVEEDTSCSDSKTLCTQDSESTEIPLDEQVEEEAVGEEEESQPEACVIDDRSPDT
# Sequence of 3',5'-cyclic-AMP phosphodiesterase 4B (Q07343 whole entry): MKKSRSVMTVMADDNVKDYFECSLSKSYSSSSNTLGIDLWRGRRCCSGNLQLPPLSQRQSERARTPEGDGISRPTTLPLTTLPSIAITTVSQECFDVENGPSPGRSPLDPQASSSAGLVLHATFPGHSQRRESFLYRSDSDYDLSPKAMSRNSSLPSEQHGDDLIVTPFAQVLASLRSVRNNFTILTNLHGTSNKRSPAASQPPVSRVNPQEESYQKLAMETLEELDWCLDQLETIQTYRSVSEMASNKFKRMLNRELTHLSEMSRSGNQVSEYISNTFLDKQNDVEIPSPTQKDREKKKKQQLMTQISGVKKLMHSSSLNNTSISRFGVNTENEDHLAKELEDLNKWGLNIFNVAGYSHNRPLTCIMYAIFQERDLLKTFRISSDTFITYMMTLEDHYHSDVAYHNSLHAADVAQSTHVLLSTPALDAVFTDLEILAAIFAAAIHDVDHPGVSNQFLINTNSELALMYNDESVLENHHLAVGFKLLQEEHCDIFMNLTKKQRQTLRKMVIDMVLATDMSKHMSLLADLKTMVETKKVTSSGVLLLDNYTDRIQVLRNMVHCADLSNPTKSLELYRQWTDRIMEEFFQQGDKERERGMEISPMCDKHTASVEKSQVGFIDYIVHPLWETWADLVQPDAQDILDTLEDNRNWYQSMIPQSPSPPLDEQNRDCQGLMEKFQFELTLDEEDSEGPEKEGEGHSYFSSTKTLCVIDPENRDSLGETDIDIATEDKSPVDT
# Sequence of Cytochrome P450 2D6 (P10635 whole entry): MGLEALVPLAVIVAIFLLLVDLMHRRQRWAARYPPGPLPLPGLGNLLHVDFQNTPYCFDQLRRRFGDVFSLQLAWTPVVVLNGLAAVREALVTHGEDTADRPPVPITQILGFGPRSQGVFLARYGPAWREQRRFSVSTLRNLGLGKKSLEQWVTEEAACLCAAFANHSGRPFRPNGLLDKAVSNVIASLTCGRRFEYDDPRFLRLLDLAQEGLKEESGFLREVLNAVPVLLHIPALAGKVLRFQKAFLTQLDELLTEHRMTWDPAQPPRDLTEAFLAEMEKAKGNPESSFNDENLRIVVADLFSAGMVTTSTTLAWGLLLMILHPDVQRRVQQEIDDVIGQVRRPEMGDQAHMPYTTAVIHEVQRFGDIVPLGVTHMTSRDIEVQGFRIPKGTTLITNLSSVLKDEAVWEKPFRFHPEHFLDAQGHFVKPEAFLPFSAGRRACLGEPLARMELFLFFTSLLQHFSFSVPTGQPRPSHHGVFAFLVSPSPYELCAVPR
# Sequence of Cytochrome P450 3A4 (P08684 whole entry): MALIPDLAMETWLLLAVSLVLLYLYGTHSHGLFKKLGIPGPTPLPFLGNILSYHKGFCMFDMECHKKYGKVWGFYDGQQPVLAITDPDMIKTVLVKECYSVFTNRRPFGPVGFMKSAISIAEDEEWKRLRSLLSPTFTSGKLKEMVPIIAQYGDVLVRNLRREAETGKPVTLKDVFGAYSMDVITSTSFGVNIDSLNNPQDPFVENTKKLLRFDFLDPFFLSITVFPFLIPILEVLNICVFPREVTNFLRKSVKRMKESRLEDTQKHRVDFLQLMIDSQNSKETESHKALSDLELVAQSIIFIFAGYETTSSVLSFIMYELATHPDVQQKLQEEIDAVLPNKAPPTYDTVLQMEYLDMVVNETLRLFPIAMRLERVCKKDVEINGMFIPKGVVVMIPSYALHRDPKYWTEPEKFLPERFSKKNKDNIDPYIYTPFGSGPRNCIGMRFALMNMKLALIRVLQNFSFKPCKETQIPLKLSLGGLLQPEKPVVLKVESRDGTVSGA
Structure (SMILES),Ratio IC50 [1],pIC50 [2],pIC50 [3],other results
Cc1nc(-c2ccccc2)nc(Nc2ccc(C(=O)O)cc2)c1C#N,12,6.92,5.82,–
C=CCc1c(C)nc(-c2ccccc2)nc1Nc1ccc(CC(=O)O)cc1,–,5.74,< 5.00,–
C=CCc1c(C)nc(-c2ccccc2)nc1Nc1ccc(C(=O)O)cc1,9.7,6.72,5.72,–
C=CCc1c(C)nc(-c2ccc(C)s2)nc1Nc1ccc(C(=O)O)cc1,8.6,6.82,5.89,–
C=CCc1c(C)nc(-c2ccc(OC)cc2)nc1Nc1ccc(C(=O)O)cc1,8.9,6.66,5.70,–
CCCc1c(C)nc(-c2ccccc2)nc1Nc1ccc(C(=O)O)cc1,5.6,5.89,5.12,–
CCc1c(C)nc(-c2ccccc2)nc1Nc1ccc(C(=O)O)cc1,15,6.85,5.68,–
C=CCc1c(C)nc(-c2csc(C)n2)nc1Nc1ccc(C(=O)O)cc1,4.2,5.55,4.92,–
C=CCc1c(C)nc(-c2ccc(C)s2)nc1Nc1ccc(CC(=O)O)cc1,28,6.49,5.06,–
C=CCc1c(CC)nc(-c2ccccc2)nc1Nc1ccc(C(=O)O)cc1,2.4,7.47,7.09,–
Cc1nc(-c2ccccc2)nc(Nc2ccc(C(=O)O)cc2)c1Cc1ccccc1,–,< 6.00,–,–
C=CCc1c(C)nc(-c2cnccn2)nc1Nc1ccc(C(=O)O)cc1,3.5,6.07,5.52,–
COc1ccc([C@]2(C#N)CC[C@@H](C(=O)O)CC2)cc1OC1CCCC1 [CILOMILAST],–,–,–,Activity [4]: Toxic; Activity [5]: Toxic; ED50 [6]: 2.2 mg/kg; inhibition in vivo at 10 mg/kg [7]: 35%; Activity [8]: Non-toxic
C=CCc1c(Nc2ccc(C(=O)O)cc2)nc(-c2ccccc2)nc1C(C)C,–,< 6.00,–,–
Cc1nc(-c2ccccc2)nc(Nc2ccc(C(=O)O)cc2)c1C,7.9,6.37,5.47,–
C=CCc1c(C)nc(-c2cccc(C)c2)nc1Nc1ccc(C(=O)O)cc1,6.9,6.68,5.82,–
CCc1c(C)nc(-c2ccc(Cl)s2)nc1Nc1ccc(CC(=O)O)cc1,114,7.82,5.77,pIC50 [9]: < 5.00; pIC50 [10]: < 5.00; inhibition in vivo at 25 mg/kg [11]: 46%; bioavailability [12]: 85%; AUC(0-inf) [13]: 52300 ng·h/mL; pIC50 [14]: < 5.70; Cmax [15]: 8700 ng/mL; Cmax [16]: 4500 ng/mL; Activity [17]: Toxic; inhibition in vivo at 12.5 mg/kg [18]: 44%; Activity [19]: Non-toxic; pIC50 [20]: < 5.70; pIC50 [21]: < 5.00; AUC(0-inf) [22]: 33500 ng·h/mL; ED50 [6]: 14 mg/kg; pIC50 [23]: < 5.70; pIC50 [24]: < 5.70; pIC50 [25]: < 5.00
C=CCc1c(C)nc(-c2ccc(OC)cc2)nc1Nc1ccc(CC(=O)O)cc1,8,6.22,5.32,–

Structure (SMILES),Ratio IC50 [1],pIC50 [2],pIC50 [3],other results
C=CCc1c(C)nc(-c2ccsc2)nc1Nc1ccc(C(=O)O)cc1,15,7.17,6.00,–
CCc1c(C)nc(-c2ccc(SC)s2)nc1Nc1ccc(CC(=O)O)cc1,43,7.47,5.82,–
C=CCc1c(C)nc(-c2ccccn2)nc1Nc1ccc(C(=O)O)cc1,4.1,5.43,4.82,–
C=CCc1c(CCC)nc(-c2ccccc2)nc1Nc1ccc(C(=O)O)cc1,3.4,6.16,5.62,–
C=CCc1c(C)nc(-c2cccs2)nc1Nc1ccc(C(=O)O)cc1,11,6.92,5.89,–
Cc1nc(-c2ccccc2)nc(Nc2ccc(C(=O)O)cc2)c1CO,15,6.27,5.10,–
C=CCc1c(C)nc(-c2ccc(C)cc2)nc1Nc1ccc(C(=O)O)cc1,13,6.66,5.55,–
Cc1nc(-c2ccccc2)nc(Nc2ccc(C(=O)O)cc2)c1C(C)C,–,< 6.00,–,–
CCc1c(C)nc(-c2cc(Br)c(C)s2)nc1Nc1ccc(CC(=O)O)cc1,420,8.17,5.54,–
CCCCc1c(C)nc(-c2ccccc2)nc1Nc1ccc(C(=O)O)cc1,–,< 6.00,–,–
CCc1c(C)nc(-c2ccc(F)s2)nc1Nc1ccc(CC(=O)O)cc1F,205,7.82,5.51,pIC50 [9]: < 5.00; pIC50 [10]: < 5.00; bioavailability [12]: 73%; AUC(0-inf) [13]: 21900 ng·h/mL; Cmax [15]: 10900 ng/mL; Cmax [16]: 14800 ng/mL; pIC50 [21]: < 5.00; AUC(0-inf) [22]: 341000 ng·h/mL; pIC50 [25]: < 5.00
C=CCc1c(C)nc(-c2ccc(OC)s2)nc1Nc1ccc(C(=O)O)cc1,9.8,7.11,6.12,–
C=CCc1c(C)nc(-c2ccc(C)cc2)nc1Nc1ccc(CC(=O)O)cc1,12,6.03,4.96,–
Cc1nc(-c2ccccc2)nc(Nc2ccc(C(=O)O)cc2)c1C=O,5.2,6.52,5.82,–
C=CCc1c(C)nc(-c2cccc(C)c2)nc1Nc1ccc(CC(=O)O)cc1,8,5.92,5.00,–
Cc1nc(-c2ccccc2)nc(Nc2ccc(C(=O)O)cc2)c1CN,–,< 6.00,–,–
CCc1c(C)nc(-c2ccc(Br)s2)nc1Nc1ccc(CC(=O)O)cc1,87,7.72,5.80,–
C=CCc1c(C)nc(-c2ccc(OC)s2)nc1Nc1ccc(CC(=O)O)cc1,29,6.72,5.28,–
